Results on six compounds are retold here after patent US9850283B2, “Macrocyclic inhibitors of the PD-1/PD-L1 and CD80(B7-1)/PD-L1 protein/protein interactions” (BRISTOL-MYERS SQUIBB COMPANY, priority 2013, dated 2017).

Starred links: 1 amine or outer side, 2 acyl side, 3 side chain; linkers in the order of their positions; H or OH if unused. Positions of bridges follow the written chain, without caps; N, C: chain ends. Non-standard residues stand in square brackets, D forms with d. Residues, ends and D or L forms follow the SMILES beside them. ξ: configuration not given here. ξPro(4R-NH2) = O=C(C1C[C@@H](N[*:3])CN1[*:1])[*:2]; NMeNle = CCCC[C@H](NC)C(=O)O; αMeP = C[C@@]1(C(=O)O)CCCN1; NMeS = CN[C@@H](CO)C(=O)O; NMeA = CN[C@@H](C)C(=O)O; ξAze = O=C(O)C1CCN1; Sar = CNCC(=O)O Some results are limits rather than exact numbers.

The target of this experiment is T1, Human PD-L1/PD-1 (Homo sapiens, UniProt Q9NZQ7).
T1 construct: made in house; host or cells: HEK293T
T1 sequence (Q9NZQ7 with tags, fused parts or gaps): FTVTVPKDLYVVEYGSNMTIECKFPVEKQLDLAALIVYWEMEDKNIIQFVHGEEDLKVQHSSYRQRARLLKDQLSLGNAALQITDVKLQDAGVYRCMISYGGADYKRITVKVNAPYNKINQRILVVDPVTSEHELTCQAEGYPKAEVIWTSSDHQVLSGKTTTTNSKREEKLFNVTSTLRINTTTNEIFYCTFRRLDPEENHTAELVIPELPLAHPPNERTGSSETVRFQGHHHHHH
Briefly: HTRF PD-1-Ig/PD-L1-His binding assay (human PD-L1). As to conditions: Table 8, Compound No. 1 variant macrocyclic peptides; read-out: HTRF Human PD-L1/PD-1 Binding Assay IC50. The source says: The ability of the macrocyclic peptides of the present disclosure to bind to PD-L1 was investigated using a PD-1/PD-L1 Homogenous Time-Resolved Fluorescence (HTRF) binding assay.
Homogenous Time-Resolved Fluorescence (HTRF) Assays of Binding of Soluble PD-1 to Soluble PD-L1. Soluble PD-1 and soluble PD-L1 refers to proteins with carboxyl-end truncations that remove the transmembrane-spanning regions and are fused to heterologous sequences, specifically the Fc portion of the human immunoglobuling G sequence (Ig) or the hexahistidine epitope tag (His). All binding studies were performed in an HTRF assay buffer consisting of dPBS supplemented with 0.1% (w/v) bovine serum albumin and 0.05% (v/v) Tween-20. […] PD-L1 fusion proteins from either human, cynomologous macaques, or mouse were used. HTRF detection was achieved using europium crypate-labeled anti-Ig monoclonal antibody (1 nM final) and allophycocyanin (APC) labeled anti-His monoclonal antibody (20 nM final). Antibodies were diluted in HTRF detection buffer and 5 μl was dispensed on top of binding reaction.
Turning to `CCCC[C@H]1C(=O)N(C)[C@@H](CCCC)C(=O)N[C@@H](CCCNC(=N)N)C(=O)N[C@H](C(=O)NCC(N)=O)CSCC(=O)N[C@@H](Cc2ccccc2)C(=O)N(C)[C@@H](C)C(=O)N[C@@H](CC(N)=O)C(=O)N2C[C@H](N)CC2C(=O)N[C@@H](Cc2cnc[nH]2)C(=O)N[C@@H](CC(C)C)C(=O)N(C)CC(=O)N[C@@H](Cc2c[nH]c3ccccc23)C(=O)N[C@@H](CO)C(=O)N[C@@H](Cc2c[nH]c3ccccc23)C(=O)N1C` (stereo partly drawn) [Compound No. 48] ({CH2CO}-F[NMeA]N[ξPro(4R-NH2)]HL[Sar]WSW[NMeNle][NMeNle]RCG-NH2; thioether N-14), the IC50 is 40 nM.
Consider `CCCC[C@H]1C(=O)N(C)[C@@H](CCCC)C(=O)N[C@@H](CCCNC(=N)N)C(=O)N[C@H](C(=O)NCC(N)=O)CSCC(=O)N[C@@H](Cc2ccccc2)C(=O)N(C)[C@@H](C)C(=O)N[C@@H](CC(N)=O)C(=O)N2CCC[C@@]2(C)C(=O)N[C@@H](Cc2cnc[nH]2)C(=O)N[C@@H](CC(C)C)C(=O)N(C)CC(=O)N[C@@H](Cc2c[nH]c3ccccc23)C(=O)N[C@@H](CO)C(=O)N[C@@H](Cc2c[nH]c3ccccc23)C(=O)N1C` [Compound No. 49] ({CH2CO}-F[NMeA]N[αMeP]HL[Sar]WSW[NMeNle][NMeNle]RCG-NH2; thioether N-14), for which the IC50 worked out at 34 nM.
Turning to `CCCC[C@H]1C(=O)N(C)[C@@H](CCCC)C(=O)N[C@@H](CCCNC(=N)N)C(=O)N[C@H](C(=O)NCC(N)=O)CSCC(=O)N[C@@H](Cc2ccccc2)C(=O)N(C)[C@@H](C)C(=O)N[C@@H](CC(N)=O)C(=O)N2CCC2C(=O)N[C@@H](Cc2cnc[nH]2)C(=O)N[C@@H](CC(C)C)C(=O)N(C)CC(=O)N[C@@H](Cc2c[nH]c3ccccc23)C(=O)N[C@@H](CO)C(=O)N[C@@H](Cc2c[nH]c3ccccc23)C(=O)N1C` (stereo partly drawn) [Compound No. 50] ({CH2CO}-F[NMeA]N[ξAze]HL[Sar]WSW[NMeNle][NMeNle]RCG-NH2; thioether N-14), the IC50 was determined as 71 nM.
The figure for `CCCC[C@H]1C(=O)N(C)[C@@H](CCCC)C(=O)N[C@@H](CCCNC(=N)N)C(=O)N[C@H](C(=O)NCC(N)=O)CSCC(=O)N[C@@H](Cc2ccccc2)C(=O)N(C)[C@@H](C)C(=O)N[C@@H](CC(N)=O)C(=O)N2CCC[C@H]2C(=O)N[C@@H](Cc2cnc[nH]2)C(=O)N[C@@H](CC(C)C)C(=O)N(C)[C@@H](CO)C(=O)N[C@@H](Cc2c[nH]c3ccccc23)C(=O)N[C@@H](CO)C(=O)N[C@@H](Cc2c[nH]c3ccccc23)C(=O)N1C` [Compound No. 56] ({CH2CO}-F[NMeA]NPHL[NMeS]WSW[NMeNle][NMeNle]RCG-NH2; thioether N-14) is 13 nM; for `CCCC[C@H]1C(=O)N(C)[C@@H](CCCC)C(=O)N[C@@H](CCCNC(=N)N)C(=O)N[C@H](C(=O)NCC(N)=O)CSCC(=O)N[C@@H](Cc2ccccc2)C(=O)N(C)[C@@H](C)C(=O)N[C@@H](CC(N)=O)C(=O)N2CCC[C@H]2C(=O)N[C@@H](Cc2c[nH]cn2)C(=O)N[C@@H](CC(C)C)C(=O)N(C)CC(=O)N[C@@H](Cc2c[nH]c3ccccc23)C(=O)N[C@H](CCC(N)=O)C(=O)N[C@@H](Cc2c[nH]c3ccccc23)C(=O)N1C` [Compound No. 59] ({CH2CO}-F[NMeA]NPHL[Sar]W[dQ]W[NMeNle][NMeNle]RCG-NH2; thioether N-14 (inferred)) it is more than 10000 nM.
The figure for `CCCC[C@H]1C(=O)N(C)[C@@H](CCCC)C(=O)N[C@@H](C)C(=O)N[C@H](C(=O)NCC(N)=O)CSCC(=O)N[C@@H](Cc2ccccc2)C(=O)N(C)[C@@H](C)C(=O)N[C@@H](CC(N)=O)C(=O)N2CCC[C@H]2C(=O)N[C@@H](Cc2cnc[nH]2)C(=O)N[C@@H](CC(C)C)C(=O)N(C)CC(=O)N[C@@H](Cc2c[nH]c3ccccc23)C(=O)N[C@H](C)C(=O)N[C@@H](Cc2c[nH]c3ccccc23)C(=O)N1C` [Compound No. 60] ({CH2CO}-F[NMeA]NPHL[Sar]W[dA]W[NMeNle][NMeNle]ACG-NH2; thioether N-14) is 43 nM.
